Test results reported in patent US11896589B2, “Diazinyl amino acridines and medical uses thereof” (MyCural Therapeutics AB, priority 2018, dated 2024).
pIC50: −log10 of the molar value.

Experiments:
[1] = target: T1, MYC:MAX (MYC-GLuc-C + MAX-GLuc-N) in HEK293 cells (Homo sapiens, UniProt P01106); test: Assay 3C GLuc complementation assay; type: cell-based
T1 construct: expressed in transfected cells; host or cells: HEK293 (also COS-7)
Description: FIG. 4: A) Endogenous MYC:MAX (upper panel) and FRA1:JUN (lower panel) interactions as visualized as fluorescent red dots by isPLA. Nuclei were counterstained with DAPI (blue). Cells were treated with 10 μM of indicated compounds for 16 hours and subjected to isPLA using pairs of MYC and MAX and of FRA1 and JUN antibodies, respectively. As negative control, primary antibody pairs but only one oligo-conjugated secondary antibody was used. B) Quantification of MYC:MAX and C) FRA1:JUN isPLA, representing an average number of nuclear dots per cell from three microscopic fields normalized to corresponding values for DMSO-treated cells. […] 1st-4th lanes from top; coimmunoprecipitated MAX, immunoprecipitated MYC, total levels of MAX and ACTIN, respectively, as determined by western blot analysis. E) MYC:MAX GLuc assay in cells. […] 24 hours later cells were treated with […] of Example 1, Example 2 and control compound for 16 hours and thereafter analyzed in a dual luciferase assay. The ratio of Gaussia/Firefly luciferase luminescence were calculated and normalized to DMSO-treated cells.
The protein fragment complementation assay using the Gaussia luciferase (GLuc) has been described (Remy, I. & Michnick, S. W. A highly sensitive protein-protein interaction assay based on Gaussia luciferase. Nat Methods 3, 977-979, doi:10.1038/nmeth979 (2006)). […] 24 hours later cells were treated with compound or DMSO. After another 17 hours the cells were harvested and lyzed in passive lysis buffer (Promega) supplemented with complete protease inhibitor (Roche). After 60 min incubation at room temperature 20 μM D-luciferin was added (substrate of Firefly luciferase) and luminescence was measured in a Lumat LB9501 (Berthold) or OmegaFluostar (BMG Labtech) luminometer. Directly after, the Gaussia luciferase substrate Coelenterazine (Promega) was added to a final concentration of 20 μM and the luciferase activity was measured. The ratio between Gaussia and Firefly luciferase values were calculated and normalized to DMSO-treated control cells.

[2] = tested on: non-MYCN-amplified neuroblastoma cells (SK-N-F1, SK-N-RA, SK-N-AS); test: Assay 5A neuroblastoma cell growth (WST-1), non-MYCN-amplified; type: cell-based
Description: FIG. 6: A-B) Neuroblastoma cell lines with (SK-N-DZ, Kelly and IMR-32) or without (SK-N-F1, SK-N-RA and SK-N-AS) MYCN-amplification were exposed to different concentrations of Example 1, Example 2 and control compound, respectively, for 48 hours. Cell growth and viability was estimated by measuring metabolic activity. C) Growth of TGR-1 (wt), HO15.19 (MYC knockout) and HOmyc3 (MYC reconstituted HO15.19) Rat1 fibroblasts, as measured by the WST-1 assay after treatment with Example 1. Data are shown as mean±standard deviation of 3-5 biological experiments, each with 3 technical repeats.
Assay 5A: Neuroblastoma Cell Growth
Neuroblastoma cell lines with (SK-N-DZ, Kelly and IMR-32) or without (SK-N-F1, SK-N-RA and SK-N-AS) MYCN-amplification were exposed to different concentrations of example compounds for 48 hours. Cell growth and viability was estimated by measuring metabolic activity by incubating cells in triplicates with WST-1 (Roche) in medium at 37° C. and 5% CO2 for 2 hours after which absorbance was measured with an Omega Fluostar (BMG Labtech) in a 96 well plate format.

MAX bHLHZip = target: T2, MAX bHLHZip (Homo sapiens, UniProt P61244); test: Assay 2A MST assay with MAX; type: binding; conditions: compound fixed at 3 μM, MAX titrated, highest concentration tested 15 μM
T2 construct: Recombinant MYC bHLHZip and MAX bHLHZip proteins were titrated
T2 sequence (P61244 22-102): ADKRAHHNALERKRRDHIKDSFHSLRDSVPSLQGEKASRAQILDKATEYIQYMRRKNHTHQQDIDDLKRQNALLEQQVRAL
Description: FIG. 2: A) MST assay of Example 1 effect on MYC and MAX, respectively. Recombinant MYC bHLHZip and MAX bHLHZip proteins were titrated, respectively, in a fixed concentration (3 μM) of Example 1. Changes in fluorescence were measured and normalized to control (buffer). Data are shown as mean±standard deviation of 6-8 biological repeats. B) MST assay of MYC (reverse MST). A fixed concentration of 200 nM labeled MYC was mixed with different concentrations of Example 1 as indicated. Data are shown as mean±standard deviation of 5 biological repeats. C) MST assay of Example 2 effect on MYC. D) MST assay of MYC with a control compound (non-binder).
The MYC MST assay was performed as described above (Biological example 1—Assay 1A), except that the fluorescent molecule was either protein or Example 1. The example compound was kept at a fix concentration of 3 μM in PBS supplemented with 0.05% Tween-20, while MYCbHLHZip or MAX was titrated. The migration of example compound changed at MYC protein concentrations above 1 μM, but was unaffected with MAX up to highest concentration tested (15 μM) (FIG. 2A). In a reverse experiment, Example 1 was titrated in a fixed protein concentration in PBS supplemented with 0.05% Tween-20 and 1% DMSO as described above after labelling primary amines of the protein using the Protein labelling kit GREEN-NHS (NanoTemper) according to manufacturer's protocol. […]

T1 sequence (P01106 whole entry): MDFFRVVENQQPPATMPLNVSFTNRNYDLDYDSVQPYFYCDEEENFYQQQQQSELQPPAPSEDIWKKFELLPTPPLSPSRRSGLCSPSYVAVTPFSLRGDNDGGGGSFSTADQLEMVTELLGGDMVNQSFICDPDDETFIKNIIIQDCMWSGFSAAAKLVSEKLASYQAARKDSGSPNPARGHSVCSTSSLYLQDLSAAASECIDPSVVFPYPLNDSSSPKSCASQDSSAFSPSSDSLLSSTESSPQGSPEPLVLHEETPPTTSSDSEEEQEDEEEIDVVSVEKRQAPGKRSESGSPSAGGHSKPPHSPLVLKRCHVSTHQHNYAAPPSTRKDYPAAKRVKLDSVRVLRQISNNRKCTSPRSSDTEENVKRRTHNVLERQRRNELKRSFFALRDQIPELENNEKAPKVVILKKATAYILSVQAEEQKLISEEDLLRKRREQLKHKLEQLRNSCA

## CCOc1ccc2nc3cc(/N=N/c4ccc(N)nc4N)ccc3c(N)c2c1 [Example 1, 3-((9-amino-7-ethoxyacridin-3-yl)diazenyl)pyridine-2,6-diamine sulphate hydrate]
[1]; HEK293
  inhibition at 10 µM: 50%
[1]; exogenous MYC:MAX
  pIC50: 5.00
[2]; Homo sapiens, SK-N-AS, 48 h, first run
  GI50: > 20 µM
[2]; Homo sapiens, SK-N-AS, second run
  GI50: > 25 µM
[2]; first run, 48 hours, sulphate hydrate
  GI50: > 25 µM
MAX bHLHZip
  Effect on thermophoresis (MAX protein concentration): > 15 µM
